Measured values published in the supplement of paper PMC10307832.

Experiments:
Test in all cases: relative viability (nuclei count vs DMSO), 5 days (fraction); higher = more cells survive
Entinostat + Linsitinib = compound: Nc1ccccc1NC(=O)c1ccc(CNC(=O)OCc2cccnc2)cc1 [Entinostat] + C[C@]1(O)C[C@@H](c2nc(-c3ccc4ccc(-c5ccccc5)nc4c3)c3c(N)nccn32)C1 [Linsitinib] (partner 1 µM)
Method in brief: (§1)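 After 5 days of treatment, lung cancer cells in 1536-well plates were fixed and stained in a single step (final 0.05% Triton X-100, 1% formaldehyde, 1 ug/ml Hoechst) and their nuclei counted on 4× images. Treatment had been applied by pin tool the day after seeding as one drug alone or as a fixed anchor-drug dose with five library-drug doses (not always all listed) in √10 steps. Relative viability is the nuclei count of treated wells divided by that of vehicle wells, and values are medians of duplicate plates.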

Entinostat + Navitoclax = compound: Nc1ccccc1NC(=O)c1ccc(CNC(=O)OCc2cccnc2)cc1 [Entinostat] + CC1(C)CCC(c2ccc(Cl)cc2)=C(CN2CCN(c3ccc(C(=O)NS(=O)(=O)c4ccc(N[C@H](CCN5CCOCC5)CSc5ccccc5)c(S(=O)(=O)C(F)(F)F)c4)cc3)CC2)C1 [Navitoclax] (partner 0.5 µM)
Method in brief: as §1

[1] = compound: C1COCCN1C2=NC(=NC3=C2OC4=C3C=CC=N4)C5=CC(=CC=C5)NC(=O)C6=CN=C(C=C6)N + CS(=O)(=O)N1CCN(Cc2cc3nc(-c4cccc5[nH]ncc45)nc(N4CCOCC4)c3s2)CC1 [Pictilisib] (partner 1 µM)
Method in brief: as §1

[2] = compound: C1COCCN1C2=NC(=NC3=C2OC4=C3C=CC=N4)C5=CC(=CC=C5)NC(=O)C6=CN=C(C=C6)N + CC(=O)c1c(C)c2cnc(Nc3ccc(N4CCNCC4)cn3)nc2n(C2CCCC2)c1=O [Palbociclib] (partner 0.5 µM)
Method in brief: as §1

Cell Line | relative viability (Entinostat + Linsitinib; first compound 0.02 µM) | relative viability (Entinostat + Linsitinib; first compound 0.06325 µM) | relative viability (Entinostat + Linsitinib; first compound 0.2 µM) | relative viability (Entinostat + Linsitinib; first compound 0.6325 µM) | relative viability (Entinostat + Linsitinib; first compound 2 µM) | relative viability (Entinostat + Navitoclax; first compound 0.02 µM) | relative viability (Entinostat + Navitoclax; first compound 0.06325 µM) | relative viability (Entinostat + Navitoclax; first compound 0.2 µM) | relative viability (Entinostat + Navitoclax; first compound 0.6325 µM) | relative viability (Entinostat + Navitoclax; first compound 2 µM) | relative viability ([1]; first compound 0.02 µM) | relative viability ([1]; first compound 0.06325 µM) | relative viability ([1]; first compound 0.2 µM) | relative viability ([1]; first compound 0.6325 µM) | relative viability ([1]; first compound 2 µM) | relative viability ([2]; first compound 0.02 µM) | relative viability ([2]; first compound 0.06325 µM) | relative viability ([2]; first compound 0.2 µM) | relative viability ([2]; first compound 0.6325 µM) | relative viability ([2]; first compound 2 µM)
Calu-6 | 0.859 | 0.961 | 0.852 | 0.739 | 0.502 | 0.761 | 0.859 | 0.774 | 0.524 | 0.308 | 1.03 | 0.932 | 0.87 | 0.888 | 0.472 | – | – | – | – | –
NCI-H2342 | – | – | – | – | – | – | – | – | – | – | – | – | – | – | – | 0.525 | 0.522 | 0.505 | 0.512 | 0.515
ChaGo-K-1 | – | – | – | – | – | 1.23 | 1.04 | 1.11 | 0.783 | 0.679 | 0.789 | 0.61 | 0.547 | 0.633 | 0.624 | 0.994 | 0.983 | 0.968 | 0.835 | 0.502
NCI-H1563 | 1.14 | 1.2 | 1.09 | 0.897 | 0.769 | – | – | – | – | – | 0.632 | 0.618 | 0.622 | 0.626 | 0.604 | – | – | – | – | –
IA-LM | 0.645 | 0.774 | 0.785 | 0.628 | 0.543 | 0.802 | 0.861 | 0.898 | 0.685 | 0.378 | – | 0.301 | 0.319 | 0.353 | 0.182 | – | – | – | – | –
NCI-H650 | 1.03 | 1.16 | 0.902 | 0.552 | 0.243 | – | – | – | – | – | 0.948 | 0.947 | 0.861 | 0.77 | 0.741 | 0.308 | 0.325 | 0.35 | 0.345 | 0.287
NCI-H1299 | 0.962 | 0.914 | 0.95 | 0.754 | 0.601 | 1.05 | 1.01 | 1.05 | 0.936 | 0.763 | 0.866 | 0.943 | 0.808 | 0.791 | 0.442 | – | – | – | – | –
NCI-H661 | 0.481 | 0.769 | 0.678 | 0.725 | 0.624 | – | – | – | – | – | 0.441 | 0.395 | 0.392 | 0.375 | 0.163 | 0.396 | 0.402 | 0.387 | 0.375 | 0.374
SW 900 | – | – | – | – | – | – | – | – | – | – | – | – | – | – | – | 0.52 | 0.555 | 0.525 | 0.548 | 0.345
ABC-1 | 0.686 | 0.992 | 0.807 | 0.481 | 0.506 | – | – | – | – | – | 0.711 | 0.717 | 0.773 | 0.768 | 0.609 | 0.562 | 0.658 | 0.55 | 0.7 | 0.471
NCI-H1648 | – | – | – | – | – | – | – | – | – | – | – | – | – | – | – | 0.252 | 0.252 | 0.255 | 0.212 | 0.222
A549 | 0.595 | 0.646 | 0.627 | 0.648 | 0.602 | 1.22 | 1.21 | 1.07 | 0.787 | 0.395 | 0.628 | 0.577 | 0.397 | 0.391 | 0.24 | – | – | – | – | –
NCI-H358 | 0.699 | 0.905 | 0.934 | 0.503 | 0.238 | – | – | – | – | – | 0.287 | 0.302 | 0.288 | 0.328 | 0.296 | 0.119 | 0.14 | 0.137 | 0.145 | 0.108
